# Measured values: ChEMBL document CHEMBL5247580, “Discovery of novel AdipoRon analogues as potent anti-inflammatory agents against nonalcoholic steatohepatitis” (Eur J Med Chem, 2022)
# Active and inactive are the calls of the source. The rule behind the calls is not given here.
# Experiments:
# Mus musculus [1] = assay: Antiinflammatory activity in HFCFD-induced NASH po dosed C57BL/6JNifdc mouse model assessed as downregulation of IL-12beta expression administered once daily for 4 weeks; type: functional, organism-based; conditions: dose 25-50 mg/kg
# Mus musculus [2] = assay: Antiinflammatory activity in HFCFD-induced NASH C57BL/6JNifdc mouse model assessed as decrease in AST serum level at 50 mg/kg, po administered once daily for 4 weeks by automated biochemical analyzer; type: functional, organism-based
# Mus musculus [3] = assay: Anti-fibrosis effect in HFCFD-induced NASH C57BL/6JNifdc mouse model assessed as downregulation of alpha-SMA mRNA level at 25 to 50 mg/kg, po administered once daily for 4 weeks; type: functional, organism-based; conditions: dose 25-50 mg/kg
# RAW264.7 [4] = assay: Cytotoxicity against mouse RAW264.7 cells at 50 uM by MTT assay relative to control; type: functional
# Mus musculus [5] = assay: Antiinflammatory activity in NASH C57BL/6JNifdc po dosed mouse model assessed as decrease in NF-kappaB p65 phosphorylation level administered once daily for 4 weeks by Western blot analysis; type: functional, organism-based; conditions: dose 25-50 mg/kg
# [6] = target: T1, 5'-AMP-activated protein kinase (Mus musculus) (UniProt Q5EG47+Q8BRK8+Q6PAM0+O54950+Q91WG5+Q9R078+Q8BGM7); assay: Agonist activity at AMPK in mouse RAW264.7 cells assessed as stimulation of AMPK phosphorylation at upto 10 uM; type: cell-based; conditions: filed as agonist
# Mus musculus [7] = assay: Reduction in hepatic steatosis in HFCFD-induced NASH C57BL/6JNifdc mouse model assessed as reduction in liver/body weight ratio at 50 mg/kg, po administered once daily for 4 weeks; type: functional, organism-based
# Mus musculus [8] = assay: Antiinflammatory activity in HFCFD-induced NASH C57BL/6JNifdc mouse model assessed as change inflammatory infiltration at 50 mg/kg, po administered once daily for 4 weeks by H and E staining based analysis; type: functional, organism-based
# Mus musculus [9] = assay: Antiinflammatory activity in HFCFD-induced NASH po dosed C57BL/6JNifdc mouse model assessed as downregulation of IL-1beta expression administered once daily for 4 weeks; type: functional, organism-based; conditions: dose 25-50 mg/kg
# Mus musculus [10] = assay: Antiinflammatory activity in HFCFD-induced NASH C57BL/6JNifdc mouse model assessed as decrease in ALT serum level at 50 mg/kg, po administered once daily for 4 weeks by automated biochemical analyzer; type: functional, organism-based
# Mus musculus [11] = assay: Antiinflammatory activity in HFCFD-induced NASH po dosed C57BL/6JNifdc mouse model assessed as downregulation of CCL5 expression administered once daily for 4 weeks; type: functional, organism-based; conditions: dose 25-50 mg/kg
# Mus musculus [12] = assay: Anti-fibrosis effect in HFCFD-induced NASH C57BL/6JNifdc mouse model assessed as downregulation of Col3a1 mRNA level at 25 to 50 mg/kg, po administered once daily for 4 weeks; type: functional, organism-based; conditions: dose 25-50 mg/kg
# [13] = target: T1, 5'-AMP-activated protein kinase (Mus musculus); assay: Agonist activity at AMPK in mouse C2C12 cells assessed as increase in PGC-1alpha mRNA level; type: cell-based; conditions: filed as agonist, dose <= 30.0 µM
# RAW264.7 [14] = assay: Anti-inflammatory activity in LPS induced mouse RAW264.7 cells assessed as inhibition of IL-1beta mRNA expression incubated for 12 hrs followed by LPS stimulation and measured after 6 hrs by RT-PCR method; type: functional, cell-based
# Mus musculus [15] = assay: Anti-fibrosis effect in HFCFD-induced NASH C57BL/6JNifdc mouse model assessed as decrease in collagen accumulation at 25 to 50 mg/kg, po administered once daily for 4 weeks by Sirius red staining based analysis; type: functional, organism-based; conditions: dose 25-50 mg/kg
# Mus musculus [16] = assay: Reduction in hepatic steatosis in HFCFD-induced NASH po dosed C57BL/6JNifdc mouse model assessed as decrease in lipid droplets administered once daily for 4 weeks by H and E staining based analysis; type: functional, organism-based; conditions: dose 25-50 mg/kg
# Mus musculus [17] = assay: Reduction in hepatic steatosis in HFCFD-induced NASH C57BL/6JNifdc mouse model assessed as reduction in liver weight at 50 mg/kg, po administered once daily for 4 weeks; type: functional, organism-based
# Mus musculus [18] = assay: Antiinflammatory activity in HFCFD-induced NASH po dosed C57BL/6JNifdc mouse model assessed as downregulation of CCL4 expression administered once daily for 4 weeks; type: functional, organism-based; conditions: dose 25-50 mg/kg
# Mus musculus [19] = assay: Reduction in hepatic steatosis in HFCFD-induced NASH C57BL/6JNifdc mouse model assessed as decrease in fatty acids at 25 to 50 mg/kg, po administered once daily for 4 weeks by Oil red-O staining based assay; type: functional, organism-based; conditions: dose 25-50 mg/kg
# Mus musculus [20] = assay: Reduction in hepatic steatosis in HFCFD-induced NASH C57BL/6JNifdc mouse model assessed as decrease in triglycerides at 25 to 50 mg/kg, po administered once daily for 4 weeks by Oil red-O staining based assay; type: functional, organism-based; conditions: dose 25-50 mg/kg
# Mus musculus [21] = assay: Reduction in hepatic steatosis in HFCFD-induced NASH C57BL/6JNifdc mouse model assessed as decrease in neutral fat at 25 to 50 mg/kg, po administered once daily for 4 weeks by Oil red-O staining based assay; type: functional, organism-based; conditions: dose 25-50 mg/kg
# Mus musculus [22] = assay: Antiinflammatory activity in HFCFD-induced NASH po dosed C57BL/6JNifdc mouse model assessed as downregulation of TNFalpha expression administered once daily for 4 weeks; type: functional, organism-based; conditions: dose 25-50 mg/kg
# Mus musculus [23] = assay: Reduction in hepatic steatosis in HFCFD-induced NASH po dosed C57BL/6JNifdc mouse model assessed as decrease in hepatocellular vacuolization administered once daily for 4 weeks by H and E staining based analysis; type: functional, organism-based; conditions: dose 25-50 mg/kg
# RAW264.7 [24] = assay: Antiinflammatory activity in mouse RAW264.7 cells assessed as downregulation of NF-kappaB p65 phosphorylation level at upto 10 uM by Western blot analysis; type: functional, cell-based
# [25] = target: T1, 5'-AMP-activated protein kinase (Mus musculus); assay: Agonist activity at AMPK in mouse C2C12 cells assessed as stimulation of AMPK phosphorylation at upto 30 uM; type: cell-based; conditions: filed as agonist
# Mus musculus [26] = assay: Anti-fibrosis effect in HFCFD-induced NASH C57BL/6JNifdc mouse model assessed as downregulation of Col1a1 mRNA level at 25 to 50 mg/kg, po administered once daily for 4 weeks; type: functional, organism-based; conditions: dose 25-50 mg/kg
# Mus musculus [27] = assay: Antiinflammatory activity in HFCFD-induced NASH po dosed C57BL/6JNifdc mouse model assessed as downregulation of CCL2 expression administered once daily for 4 weeks; type: functional, organism-based; conditions: dose 25-50 mg/kg
# RAW264.7 [28] = assay: Anti-inflammatory activity in LPS induced mouse RAW264.7 cells assessed as inhibition of IL-1beta mRNA expression at 10 uM incubated for 12 hrs followed by LPS stimulation and measured after 6 hrs by RT-PCR method; type: functional, cell-based; conditions: time 18.0 hrs
# RAW264.7 [29] = assay: Anti-inflammatory activity in LPS induced mouse RAW264.7 cells assessed as inhibition of IL-6 mRNA expression at 10 uM incubated for 12 hrs followed by LPS stimulation and measured after 6 hrs by RT-PCR method; type: functional, cell-based; conditions: time 18.0 hrs
smiles,measurement,setting,value
CC(C)(Oc1ccc(C(=O)c2ccc(Cl)cc2)cc1)C(=O)NC1CCN(Cc2ccc(C(F)(F)F)cc2)CC1,Activity,Mus musculus [1],Dose-Dependent Effect
same,Activity,Mus musculus [2],Active
same,Activity,Mus musculus [3],Active
same,Activity,RAW264.7 [4],98.46%
same,Activity,Mus musculus [5],Dose-Dependent Effect
same,Activity,[6],Active
same,Activity,Mus musculus [7],Active
same,Activity,Mus musculus [8],Active
same,Activity,Mus musculus [9],Dose-Dependent Effect
same,Activity,Mus musculus [10],Active
same,Activity,Mus musculus [11],Dose-Dependent Effect
same,Activity,Mus musculus [12],Active
same,Activity,[13],Dose-Dependent Effect
same,IC50,RAW264.7 [14],4.4 µM
same,Activity,Mus musculus [15],Active
same,Activity,Mus musculus [16],Dose-Dependent Effect
same,Activity,Mus musculus [17],Active
same,Activity,Mus musculus [18],Dose-Dependent Effect
same,Activity,Mus musculus [19],Active
same,Activity,Mus musculus [20],Active
same,Activity,Mus musculus [21],Active
same,Activity,Mus musculus [22],Dose-Dependent Effect
same,Activity,Mus musculus [23],Dose-Dependent Effect
same,Activity,RAW264.7 [24],Active
same,Activity,[25],Active
same,Activity,Mus musculus [26],Active
same,Activity,Mus musculus [27],Dose-Dependent Effect
COc1ccc(CN2CCC(NC(=O)C(C)(C)CCCOc3cc(C)ccc3C)CC2)cc1,Activity,RAW264.7 [4],7.19%
same,IC50,RAW264.7 [14],4.15 µM
Cc1ccc(C)c(OCCCC(C)(C)C(=O)NC2CCN(Cc3ccc(C(F)(F)F)cc3)CC2)c1,Activity,RAW264.7 [4],93.12%
same,IC50,RAW264.7 [14],5.17 µM
Cc1ccc(C)c(OCCCC(C)(C)C(=O)NC2CCN(Cc3ccc(F)cc3)CC2)c1,Activity,RAW264.7 [4],78.02%
same,IC50,RAW264.7 [14],4.56 µM
CC(C)(Oc1ccc(C(=O)c2ccc(Cl)cc2)cc1)C(=O)NC1CCN(Cc2ccc(OC(F)(F)F)cc2)CC1,Activity,RAW264.7 [4],88.34%
same,IC50,RAW264.7 [14],9.76 µM
Cc1ccc(C)c(OCCCC(C)(C)C(=O)NC2CCN(Cc3ccccc3)CC2)c1,Activity,RAW264.7 [28],Active
CC(C)(Oc1ccc(C(=O)c2ccc(Cl)cc2)cc1)C(=O)NC1CCN(Cc2ccccc2)CC1,Activity,RAW264.7 [28],Active
COc1ccc(CN2CCC(NC(=O)C(C)(C)Oc3ccc(C(=O)c4ccc(Cl)cc4)cc3)CC2)cc1,Activity,RAW264.7 [4],4.08%
same,IC50,RAW264.7 [14],4.57 µM
Cc1ccc(CN2CCC(NC(=O)C(C)(C)Oc3ccc(C(=O)c4ccc(Cl)cc4)cc3)CC2)cc1,Activity,RAW264.7 [4],4.64%
same,IC50,RAW264.7 [14],8.56 µM
Cc1ccc(CN2CCC(NC(=O)C(C)(C)CCCOc3cc(C)ccc3C)CC2)cc1,Activity,RAW264.7 [4],42.67%
same,IC50,RAW264.7 [14],6.54 µM
CC(C)(Oc1ccc(Cl)cc1)C(=O)NC1CCN(Cc2ccccc2)CC1,Activity,RAW264.7 [28],inactive
Cc1ccc(C)c(OCCCC(C)(C)C(=O)NC2CCN(Cc3ccc(Cl)cc3)CC2)c1,Activity,RAW264.7 [4],68.99%
same,IC50,RAW264.7 [14],14.8 µM
COc1ccc(CN2CCC(NC(=O)COc3ccc(C(=O)c4ccc(Cl)cc4)cc3)CC2)cc1,Activity,RAW264.7 [4],3.33%
same,IC50,RAW264.7 [14],10.2 µM
O=C(COc1ccc(C(=O)c2ccccc2)cc1)NC1CCN(Cc2ccccc2)CC1,Activity,RAW264.7 [28],Active
same,Activity,RAW264.7 [4],96.32%
same,IC50,RAW264.7 [14],15 µM
same,Activity,RAW264.7 [29],Active
